Data as given in publication PMC8815882, “Screening the pandemic response box identified benzimidazole carbamates, Olorofim and ravuconazole as promising drug candidates for the treatment of eumycetoma” (PLoS Neglected Tropical Diseases, 2022).
Converted amounts (≈) assume the structure as drawn. Where two headings read alike, the source gives them in different places.

What was measured:
[1] = tested on: M. mycetomatis genome strain MM55; experiment: CLSI M38-A2 based in vitro susceptibility screening (XTT or resazurin), growth at fixed concentration; type: cell-based, Madurella mycetomatis; settings: for Inhibits growth of Madurella mycetomatis at 25 μM: selected if >75% (resazurin) or >80% (XTT) fungal growth inhibited
[2] = tested on: M. mycetomatis isolate MM55; experiment: M. mycetomatis grain infection model in G. mellonella larvae, survival; type: in vivo, Galleria mellonella; set-up: In vivo efficacy, Larvae survival %: concentration or dose not given beside the values
[3] = tested on: M. tropicana strain CBS206.47; experiment: CLSI M38-A2 based in vitro susceptibility screening at 25 μM; type: cell-based, Madurella tropicana; settings: selected if >75% (resazurin) or >80% (XTT) fungal growth inhibited
[4] = tested on: F. senegalensis strain CBS132257; experiment: as above; type: cell-based, Falciformispora senegalensis; settings: selected if >75% (resazurin) or >80% (XTT) fungal growth inhibited
[5] = tested on: M. pseudomycetomatis strain Mex2A; experiment: as above; type: cell-based, Madurella pseudomycetomatis; settings: selected if >75% (resazurin) or >80% (XTT) fungal growth inhibited
[6] = tested on: ten different M. mycetomatis isolates; experiment: MIC / MIC50 determination (XTT) in ten M. mycetomatis isolates; type: cell-based, Madurella mycetomatis; settings: Madurella mycetomatis
[7] = tested on: Me. romeroi strain CBS128765; experiment: CLSI M38-A2 based in vitro susceptibility screening at 25 μM; type: cell-based, Medicopsis romeroi; settings: selected if >75% (resazurin) or >80% (XTT) fungal growth inhibited
[8] = tested on: M. mycetomatis MM55; experiment: IC50 determination, 2-fold dilution series 16 to 0.03125 μM; type: cell-based, Madurella mycetomatis; settings: for IC50 / IC90: Madurella mycetomatis
[9] = Madurella mycetomatis, mean, read-out: Percentage survival at 25um, 25 uM mean
[10] = Madurella mycetomatis, replicate A, read-out: Percentage survival at 25um, 25 um A
[11] = Madurella mycetomatis, replicate B, read-out: Percentage survival at 25um, 25 uM B
[12] = Madurella mycetomatis, replicate C, read-out: Percentage survival at 25um, 25 uM C
[13] = Madurella mycetomatis, 100 uM, mean, read-out: Percentage survival at 100um, 100 uM mean
[14] = Madurella mycetomatis, 100 uM, replicate (first column), read-out: Percentage survival at 100um, 100 uM A
[15] = Madurella mycetomatis, 100 uM, replicate (second column), read-out: Percentage survival at 100um, 100 uM A
[16] = Madurella mycetomatis, 100 uM, replicate (third column), read-out: Percentage survival at 100um, 100 uM A
[17] = median MIC over ten M. mycetomatis isolates, no asterisk, read-out: MIC50
[18] = over the isolates tested, read-out: MIC50 mean
[19] = isolate CBS247.48, read-out: MIC CBS247.48
[20] = isolate MM55, read-out: MIC MM55
[21] = MM55, Table 2, M. mycetomatis MM55, read-out: IC50
[22] = MM55, mean, read-out: IC50 mean
[23] = MM55, replicate 1, read-out: IC50 1
[24] = MM55, replicate 1, read-out: IC90 1
[25] = MM55, replicate 2, read-out: IC50 2
[26] = MM55, replicate 2, read-out: IC90 2
[27] = MM55, replicate 3, read-out: IC50 3
[28] = MM55, replicate 3, read-out: IC90 3

COC(=O)Nc1nc2ccc(Sc3ccccc3)cc2[nH]1 [MMV003143, Fenbendazole]
Inhibits growth of Madurella mycetomatis at 25 μM [1]: inhibit the growth
activity at 25 µM [1, 9]: 2.38%
activity at 25 µM [1, 10]: -0.759%
activity at 25 µM [1, 11]: 3.53%
activity at 25 µM [1, 12]: 4.38%
activity at 100 µM [1, 13]: 7.16%
activity at 100 µM [1, 14]: 0.376%
activity at 100 µM [1, 15]: 9.19%
activity at 100 µM [1, 16]: 11.9%
Larvae survival rate on day ten ([2]; 20 μM per larvae at 4, 28, 52 h after infection, day ten): 24.4%
Effect on larvae survival Day 4 (words) ([2]; 20 μM per larvae, vs infected control, day four): Increase survival
Effect on larvae survival Day 10 (words) ([2]; 20 μM per larvae, vs infected control, day ten): Increase survival
Effect on larvae survival Day 10 (words) ([2]; 20 μM per larvae, vs infected control, day ten, listed as fenbendazole): able to increase larvae survival
In vivo efficacy, Enhanced survival compared to control? ([2]; in vivo): yes *
In vivo efficacy, Larvae survival % ([2]; in vivo): 24.4%
Inhibits growth of Madurella tropicana at 25 μM [3]: inhibit the growth
Inhibits growth of Falciformispora senegalensis at 25 μM [4]: inhibit the growth
Inhibits growth of Madurella pseudomycetomatis at 25 μM [5]: inhibit the growth
MIC50 ([6]; Table 3 and Fig 5, benzimidazole carbamates, M. mycetomatis, read-out: MIC50): 0.5 µM (≈ 0.15 µg/mL)
MIC50 [6, 17]: 2 µM (≈ 0.599 µg/mL)
MIC50 [6, 18]: 0.5 µM (≈ 0.15 µg/mL)
MIC [6, 19]: 0.5 µM (≈ 0.15 µg/mL)
MIC ([6]; isolate MM14, read-out: MIC MM14): 0.5 µM (≈ 0.15 µg/mL)
MIC ([6]; isolate MM45, read-out: MIC MM45): 0.5 µM (≈ 0.15 µg/mL)
MIC [6, 20]: 0.5 µM (≈ 0.15 µg/mL)
MIC ([6]; isolate P1, read-out: MIC P1): 0.5 µM (≈ 0.15 µg/mL)
MIC ([6]; isolate ParijsAl1, read-out: MIC ParijsAl1): 0.5 µM (≈ 0.15 µg/mL)
MIC ([6]; isolate Peru72012, read-out: MIC Peru72012): 0.5 µM (≈ 0.15 µg/mL)
MIC ([6]; isolate So1, read-out: MIC So1): 2 µM (≈ 0.599 µg/mL)
MIC ([6]; isolate i1, read-out: MIC i1): 0.25 µM (≈ 0.0748 µg/mL)
MIC ([6]; isolate i11, read-out: MIC i11): 1 µM (≈ 0.299 µg/mL)
Inhibits growth of Medicopsis romeroi at 25 μM [7]: inhibit the growth
Drug static or cidal [8]: Static
IC50 [8, 21]: 2.66 µM
IC50 ([8]; MM55, Table 3, benzimidazole carbamates, M. mycetomatis, read-out: IC50): 2.66 µM
IC50 [8, 22]: 2.66 µM
IC90 ([8]; MM55, read-out: IC90 mean): 9.09 µM
IC50 [8, 23]: 2.58 µM
IC90 [8, 24]: 17 µM
IC50 [8, 25]: 2.52 µM
IC90 [8, 26]: 4.6 µM
IC50 [8, 27]: 2.88 µM
IC90 [8, 28]: 5.68 µM

COc1cc(C)c2c(Oc3cccc(C(F)(F)F)c3)c(OC)cc(NC(C)CCCN)c2n1 (centres unmarked) [MMV000043, Tafenoquine, reference compound]
Inhibits growth of Madurella mycetomatis at 25 μM [1]: inhibit the growth
activity at 25 µM [1, 9]: 0.788%
activity at 25 µM [1, 10]: -2.31%
activity at 25 µM [1, 11]: 0.422%
activity at 25 µM [1, 12]: 4.25%
activity at 100 µM [1, 13]: 22.7%
activity at 100 µM [1, 14]: 53.1%
activity at 100 µM [1, 15]: 6.69%
activity at 100 µM [1, 16]: 8.3%
Inhibits growth of Madurella tropicana at 25 μM [3]: inhibit the growth
Inhibits growth of Falciformispora senegalensis at 25 μM [4]: inhibit the growth
Inhibits growth of Madurella pseudomycetomatis at 25 μM [5]: inhibit the growth
MIC50 [6, 17]: 4 µM (≈ 1.85 µg/mL)
MIC50 [6, 18]: 4 µM (≈ 1.85 µg/mL)
MIC [6, 19]: 8 µM (≈ 3.71 µg/mL)
MIC [6, 20]: 4 µM (≈ 1.85 µg/mL)
MIC ([6]; isolate P1, read-out: MIC P1): 16 µM (≈ 7.42 µg/mL)
MIC ([6]; isolate So1, read-out: MIC So1): 16 µM (≈ 7.42 µg/mL)
MIC ([6]; isolate i1, read-out: MIC i1): 4 µM (≈ 1.85 µg/mL)
MIC ([6]; isolate i11, read-out: MIC i11): 4 µM (≈ 1.85 µg/mL)
Inhibits growth of Medicopsis romeroi at 25 μM [7]: inhibit the growth
Drug static or cidal [8]: Cidal
IC50 [8, 21]: 12.8 µM
IC50 [8, 22]: 12.9 µM
IC90 ([8]; MM55, read-out: IC90 mean): 23.9 µM
IC50 [8, 23]: 11.7 µM
IC90 [8, 24]: 23.5 µM
IC50 [8, 25]: 13.2 µM
IC90 [8, 26]: 23.6 µM
IC50 [8, 27]: 13.8 µM
IC90 [8, 28]: 24.7 µM

CCC(C)NCC(O)Cn1c2ccc(Cl)cc2c2cc(Cl)ccc21 (centres unmarked) [MMV1578570]
Inhibits growth of Madurella mycetomatis at 25 μM [1]: inhibit the growth
activity at 25 µM ([1]; Madurella mycetomatis, mean of three replicates, read-out: Percentage survival at 25um, 25 uM mean): 7.02%
activity at 25 µM [1, 10]: 9.54%
activity at 25 µM [1, 11]: -1.08%
activity at 25 µM [1, 12]: 12.6%
activity at 100 µM ([1]; Madurella mycetomatis, 100 uM, mean of three replicates, read-out: Percentage survival at 100um, 100 uM mean): 3.38%
activity at 100 µM ([1]; Madurella mycetomatis, 100 uM, replicate 1, read-out: Percentage survival at 100um, 100 uM A (first replicate column)): 1.05%
Percent fungal survival at 100 µM ([1]; Madurella mycetomatis, 100 uM, replicate 2, read-out: Percentage survival at 100um, 100 uM A (second replicate column)): 3.75%
activity at 100 µM ([1]; Madurella mycetomatis, 100 uM, replicate 3, read-out: Percentage survival at 100um, 100 uM A (third replicate column)): 5.34%
Inhibits growth of Madurella tropicana at 25 μM [3]: inhibit the growth
Inhibits growth of Falciformispora senegalensis at 25 μM [4]: inhibit the growth
Inhibits growth of Madurella pseudomycetomatis at 25 μM [5]: inhibit the growth
Inhibits growth of Medicopsis romeroi at 25 μM [7]: inhibit the growth
Drug static or cidal [8]: Static
IC50 ([8]; MM55, mean of three replicates, read-out: IC50 mean): 17.1 µM
IC50 ([8]; MM55, replicate 1, read-out: IC50 1 um): 21.7 µM
IC90 ([8]; MM55, replicate 1, read-out: IC90 1 um): > 25 µM
IC50 ([8]; MM55, replicate 2, read-out: IC50 2 um): 17.2 µM
IC90 ([8]; MM55, replicate 2, read-out: IC90 2 um): 24.2 µM
IC50 ([8]; MM55, replicate 3, read-out: IC50 3 um): 12.5 µM
IC90 ([8]; MM55, replicate 3, read-out: IC90 3 um): 21.6 µM
